# According to US20150366877A1, “METHODS OF TREATMENT OF HUMAN CYTOMEGALOVIRUS INFECTION AND DISEASES WITH BROMODOMAIN INHIBITORS” (Washington University, priority 2013, published 2015):
# Read-outs that look alike come from different tables or passages of the source.
# Tests used:
# HCMV [1] = assay: Administration to a patient infected with HCMV (HCMV titers); format: in vivo, Human cytomegalovirus
# Experimental: A patient is infected with HCMV. A health practitioner administers an amount calculated to provide 1 μM of the bromodomain inhibitor GSK525762A by intraperitoneal injection. The patient's HCMV titers decrease.
# [2] = test system: HCMV laboratory strain AD169-GFP; assay: microbe, parasite or virus in culture; format: cell-based, Human cytomegalovirus; settings: Human betaherpesvirus 5, AD169, HFF
# Experimental: (§1) Drug effects were calculated as a percentage of reduction in GFPU in the presence of each drug concentration comported to the GFPU determined in the absence of drug. The dose-response curves were calculated using the GraphPad Prism 6 (GraphPad Software, USA),
# (§2) In these experiments, the inventors determined the IC50 and IC90 values of respective BET bromodomain inhibitors against HCMV infection using fluorescence reduction assay (FIG. 9; Table 3) s.
# [3] = test system: HCMV clinical strain TR-GFP; assay: microbe, parasite or virus in culture; format: cell-based, Human cytomegalovirus; settings: Human betaherpesvirus 5, HFF
# Experimental: as §1, §2
# HCMV [4] = assay: Anti-HCMV activity in cultured primary human fibroblasts; format: cell-based, Human cytomegalovirus
# HCMV AD169 strain = format: cell-based, Human cytomegalovirus
# [5] = test system: HCMV clinical strain Toledo; assay: TCID50 assay of culture supernatant (release of viral particles), Toledo; format: cell-based, Human cytomegalovirus; settings: Human betaherpesvirus 5, MOI 3, 5 dpi
# Experimental: (§3) In these experiments, the inventors used TCID50 assays to quantify the IC50 of (+)-JQ-1 in both HCMV laboratory-adapted and clinical strains (FIG. 9; Table 5). HFFs were infected with laboratory strain. AD169-GFP or laboratory strains FIXGFP & Toledo at an MOI of 3 in the presence of (+)-JQ-1 at the range of 0-2,000 nM. Culture media were changed every 24 hrs to maintain the concentration of JQ1. At 5 dpi, viral titers were determined by TCID50.
# [6] = test system: fatty acid synthase (FASN) and solute carrier family 38 member 5 (SLC38A5); assay: RNA-seq differential expression of FASN and SLC38A5 in HCMV-infected HFF; format: cell-based, human; settings: 250 uM, MOI 3, 48 hpi
# Experimental: HFF cells were mock-infected or HCMV infected with laboratory strain AD169-GFP at a MOI of 3. (FIG. 12A) HFF cells were infected with AD169-GFP at a MOI of 3 in the presence or absence of […] (+)-JQ-1. (FIG. 12B) Cells from both (A) and (B) were harvested at 48 hpi and the total RNA was extracted using a column-based RNA purification kit (Qiagen). RNA integrity was evaluated with a Nano-drop spectrometer (NanoDrop, Wilmington, Del.). Messenger RNA purification, fragmentation, construction of sequencing library and sequencing were performed. The differential expression profiles of two c-Myc inducible genes, fatty acid synthase (FASN) and solute carrier family 38 member 5 (SLC38A5), were determined using an EdgeR procedure.
# [7] = test system: HCMV clinical strain FIX-GFP; assay: TCID50 assay of culture supernatant (release of viral particles), FIX-GFP; format: cell-based, Human cytomegalovirus; settings: Human betaherpesvirus 5
# Experimental: as §3
# [8] = test system: HCMV laboratory strain AD169-GFP; assay: Time of addition assay on HCMV replication (GFP units); format: cell-based, Human cytomegalovirus; settings: fixed concentration ~6.5×IC50, added at indicated hpi, GFP units after 7 days
# [9] = test system: HCMV late proteins (pp71, pp150 and pp28); assay: Immunoblot analysis of HCMV proteins in infected HFFs; format: cell-based, Human cytomegalovirus; settings: MOI 3, different concentrations, 24, 48 and 72 hours post infection
# Experimental: The method is as described by Perng et al. 2011. HFFs were infected with HCMV, strain AD169, at an MOI of 3 in the presence of different concentrations of JQ1. Culture media was changed every 24 hours to maintain the concentration of JQ1. Cells were harvested at 24, 48 and 72 hours post infection, HCMV proteins, immediate-early protein (IE1), early protein (UL69), and late proteins (pp71, pp150 and pp28) were determined by immunoblot analysis. (FIG. 4)
# HCMV, strain AD169 = assay: TCID50 assay of viral progeny in culture media, AD169-infected HFFs; format: cell-based, Human cytomegalovirus; settings: for reduction of viral titer: 125 nM; for IC50: Human betaherpesvirus 5, AD169, 120 h
# Experimental: In this experiment, the inventors used TCID50 assays to determine the amounts of infectious viral particle in culture supernatants release from HCMV-infected cells, HFFs were infected with HCMV, strain AD169, at an MOI of 3 in the presence of different concentrations of JQ1. Culture media was changed every 24 hours to maintain the concentration of JQ1. At 5 (FIG. 2A) and 6 (FIG. 2B) days post infection (DPI), infected culture media was collected and titers of viral progeny in media was determined by TCID50 assay as described by Perng et al., 2011. The detection limit is indicated by the dashed line. (FIG. 2)
# HFFs were infected with HCMV, strain AD 169, at an MOI of 3 in the presence of JQ1 at the range of 0-2000 nM. Culture media was changed every 24 hours to maintain the concentration of JQ1. At 5 days post infection, viral titers were determined by TCID50. […] These calculated IC50 values are much lower than published values used in the treatment of cancer.
# [10] = test system: HCMV, strain AD169 infected human foreskin fibroblasts; assay: Phase-contrast/fluorescence microscopy of HCMV-infected HFF (cytomegaly morphology); format: cell-based, Human cytomegalovirus; settings: 500 nm
# Experimental: In these experiments, human foreskin fibroblasts (HFF) were infected with HCMV, strain AD169, at a multiplicity of infection (MOI) of 3 in the presence or absence of JQ1 […]. Culture media was changed every 24 hours to maintain the concentration of JQ1. Infected cells were examined by phase-contrast or fluorescence microscopy at 72 or 96 hours post infection (hpi). “Cytomegalic” cells appear larger in size with a characteristic intranuclear, homogenous, eosinophilic inclusion which can occupy the entire nucleus of the cell.
# [11] = test system: HCMV clinical strain TR-GFP; format: cell-based, Human cytomegalovirus
# [12] = test system: HCMV laboratory strain AD169-GFP; assay: TCID50 assay of culture supernatant (release of viral particles), AD169-GFP; format: cell-based, Human cytomegalovirus; settings: Human betaherpesvirus 5, AD169
# Experimental: as §3
smiles,measurement,setting,value
"COc1cc2c(cc1-c1c(C)noc1C)ncc1[nH]c(=O)n(C(C)c3ccccn3)c12 (stereo in doubt) [I-BET151, 7-(3,5-Dimethyl-1,2-oxazol-4-yl)-8-methoxy-1-[(1R)-1-(2-pyridinyl)ethyl]-1,3-dihydro-2H-imidazo[4,5-c]quinolin-2-one]",patient's HCMV titers,"HCMV [1]; amount calculated to provide 0.5 μM, intraperitoneal injection",decrease
same,IC50,[2],0.16 µM
same,IC90,[2],0.55 µM
same,IC50,[3],0.11 µM
same,IC90,[3],0.16 µM
same,Concentration to inhibit HCMV replication,HCMV [4],0.391 to 0.781 µM
"Cc1sc2c(c1C)C(c1ccc(Cl)cc1)=N[C@@H](CC(=O)OC(C)(C)C)c1nnc(C)n1-2 [(+)-JQ1, 4-(4-chlorophenyl)-2,3,9-trimethyl-1,1-dimethylethyl ester-6H-thieno[3,2-f][1,2,4]triazolo[4,3-}{1,4}diazepine-6S-acetic acid]",production of infectious viral particles (electron micrographs),HCMV AD169 strain,blocks the production of infectious viral particles
same,IC50,[5],0.022 µM
same,IC90,[5],0.037 µM
same,up-regulation of FASN and SLC38A5 by HCMV infection,[6],up-regulation is reversed
same,IC50,[7],0.018 µM
same,IC90,[7],0.031 µM
same,effect of the time of addition on HCMV replication,[8],block HCMV infections regardless of times post infection
same,accumulation of HCMV late proteins,[9],modestly inhibits
same,reduction of viral titer,"HCMV, strain AD169; 5 days post infection",approximately 1000 fold
same,reduction of viral titer,"HCMV, strain AD169; 6 days post infection",greater than 1000 fold
same,viral titer,"HCMV, strain AD169; 250 nM, 5 days post infection",further reduced the viral titer
same,viral titer,"HCMV, strain AD169; 250 nM, 6 days post infection",undetectable
same,viral titer,"HCMV, strain AD169; 500 nM, 5 days post infection",undetectable
same,viral titer,"HCMV, strain AD169; 500 nM, 6 days post infection",undetectable
same,IC50,"HCMV, strain AD169; read-out: IC50 (50% viral replication inhibitory concentration), AD169, MOI 3, 5 days post infection, calculated using four parameters",0.0216 µM
same,IC50,"HCMV, strain AD169; read-out: IC50 (50% viral replication inhibitory concentration), AD169, MOI 3, 5 days post infection, calculated using three parameters",0.0178 µM
same,patient's HCMV titers,"HCMV [1]; therapeutically effective amount, intraperitoneal injection",decrease
same,morphology of infected HFF cells,"[10]; MOI 3, 72 hours post infection",lost the “cytomegalic” morphology and an accumulation of dead cells was present
same,morphology of infected HFF cells,"[10]; MOI 3, 96 hours post infection",lost the “cytomegalic” morphology and a greater accumulation of floating dead cells were present
same,IC50,[2],0.077 µM
same,IC90,[2],0.21 µM
same,IC50,[3],0.039 µM
same,IC90,[3],0.093 µM
same,production of infectious viral particles (EM analysis),[11],blocks the production of infectious viral particles
same,IC50,[12],0.018 µM
same,IC90,[12],0.049 µM
"CCOC(=O)Nc1cc(-c2ccc(C)c(NS(C)(=O)=O)c2)nn2c(C)nnc12 [Bromosporine, N-[6-(3-methanesulfonamido-4-methylphenyl)-3-methyl-[1,2,4]triazolo[4,3-b]pyridazin-8-yl]carbamate]",IC50,[2],0.29 µM
same,IC90,[2],0.64 µM
"Cc1sc2c(c1C)C(c1ccc(Cl)cc1)=N[C@@H](CC(N)=O)c1nnc(C)n1-2 [CPI-203, (S)-2-(4-(4-chlorophenyl)-2,3,9-trimethyl-6H-thieno [3,2-f][1,2,4]triazolo[4,3-a][1,4]diazepin-6-yl)acetamide]",IC50,[2],0.04 µM
same,IC90,[2],0.14 µM
Nc1ccn(C[C@@H](CO)OCP(=O)(O)O)c(=O)n1 [Cidofovir],IC50,[2],0.15 µM
same,IC90,[2],1.08 µM
Nc1nc(O)c2ncn(COC(CO)CO)c2n1 [Ganciclovir],IC50,[2],1.78 µM
same,IC90,[2],25 µM
"CCNC(=O)C[C@@H]1N=C(c2ccc(Cl)cc2)c2cc(OC)ccc2-n2c(C)nnc21 [I-BET762, 2-[(4S)-6-(4-chlorophenyl)-8-methoxy-1-methyl-4H-[1,2,4]triazolo[4,3-a][1,4]benzodiazepine-4-yl]-N-ethylacetamide]",effect of the time of addition on HCMV replication,[8],block HCMV infections regardless of times post infection
same,patient's HCMV titers,"HCMV [1]; amount calculated to provide 1 μM, intraperitoneal injection",decrease
COc1cccc(N2CCN(C3=Nc4c(F)cccc4[C@H](CC(=O)O)N3c3cc(C(F)(F)F)ccc3OC)CC2)c1 [Letermovir],effect of the time of addition on HCMV replication,[8],cannot control the viral infection after 48 hours post-infection
same,IC50,[2],0.0041 µM
same,IC90,[2],0.0058 µM
"Cc1sc2c(c1C)C(c1ccc(Cl)cc1)=N[C@@H](CC(=O)Nc1ccc(O)cc1)c1nnc(C)n1-2 [OTX-015, (S)-2-[4-(4-chlorophenyl)-2,3,9-trimethyl-6H-thieno [3,2-f][1,2,4]triazolo-[4,3-a][1,4]diazepin-6-yl]-N-(4-hydroxyphenyl)acetamide]",effect of the time of addition on HCMV replication,[8],block HCMV infections regardless of times post infection
same,patient's HCMV titers,"HCMV [1]; therapeutically effective amount, oral administration",decrease
same,IC50,[2],0.069 µM
same,IC90,[2],0.21 µM
same,IC50,[3],0.029 µM
same,IC90,[3],0.085 µM
"COc1ccccc1S(=O)(=O)Nc1ccc2c(c1)CN(C)C(=O)N2 [PFI-1, 2-Methoxy-N-(3-methyl-2-oxo-1,2,3,4-tetrahydro-6-quinazolinyl)benzenesulfonamide]",IC50,[2],0.79 µM
same,IC90,[2],2.56 µM
same,IC50,[3],0.42 µM
same,IC90,[3],1.22 µM
"COc1cc(OC)c2c(=O)[nH]c(-c3cc(C)c(OCCO)c(C)c3)nc2c1 [RVX-208, 2-[4-(2-hydroxyethoxy)-3,5-dimethyl-phenyl]-5,7-dimethoxy-3H-quinazolin-4-one]",patient's HCMV titers,"HCMV [1]; amount calculated to provide 19 μM, intraperitoneal injection",decrease
same,IC50,[2],7.93 µM
same,IC90,[2],31.1 µM
same,IC50,[3],3.16 µM
same,IC90,[3],6.67 µM
same,Concentration to inhibit HCMV replication,HCMV [4],14.063 to 28.125 µM
